# Experimental data published in paper PMC12631721, “Preclinical Screening Platform Identifies Azatadine‐Dimaleate as a Potent Repurposed Therapeutic Against SARS‐CoV‐2 Infection” (Journal of Medical Virology, 2025).
# “And” between values parts separate entries of the source, which are not always exact repeats. Equal entries are not always repeated. “Also recorded” adds a separate entry of the source. Where two headings read alike, the source gives them in different places.
# Tests used:
# SARS‐CoV‐2 [1] = assay: CPE-based high-throughput screen (CellTox Green) in Vero cells; type: cell-based
# SARS‐CoV‐2 [2] = assay: CPE-based high-throughput screen (CellTox Green) in Calu‐3 cells; type: cell-based
# SARS‐CoV‐2 [3] = assay: microbe, parasite or virus in culture; type: cell-based
# SARS‐CoV‐2 [4] = type: cell-based; conditions: Calu‐3 pretreated 24 h before infection, MOI = 0.1, plaque assay
# SARS‐CoV‐2 [5] = assay: Viral NSP12 RNA by RT‐qPCR in Calu‐3 cells; type: cell-based; conditions: Calu‐3, RT‐qPCR
# Description: (A) Cell viability assessment in uninfected Calu‐3 cells treated with DMSO control, Azatadine‐Dimaleate (25 µM), Remdesivir (1 µM), or the combination (Remdesivir 1 µM + Azatadine 25 µM) for 72 h. […] (B) Release of infectious virus was quantified by plaque assay. Calu‐3 cells were pretreated with Azatadine‐Dimaleate (5 & 25 µM) or Remdesivir (1 µM) 24 h before infection with SARS‐CoV‐2 PHE (MOI = 0.1). (C) Levels of viral NSP12 RNA was measured by RT‐qPCR following treatment with Azatadine‐Dimaleate at (5 & 25 µM) or Remdesivir (1 µM) 24 h before infection with SARS‐CoV‐2 (PHE MOI = 0.1). Data bars represent mean ± SEM of n = 3 independent experiments. Statistical analysis by one‐way ANOVA, ***p ≤ 0.001 vs DMSO control. […] DMSO alone was used as a negative control. At 72 hpi viral titres were determined by plaque assay. Data points represent an average of 3 separate repeat experiments ±SEM.
# For RNA extraction, cultures were incubated with 400 µL of Lysis/Binding buffer (High Pure Isolation Kit; Roche) for 5 min at room temperature. […] RNA was quantified by spectrophotometry and 1 µg was transcribed into cDNA using The High‐Capacity cDNA Reverse Transcription Kit (Applied Biosystems, Thermo Fisher Scientific) in 0.2 mL PCR reaction tubes (Eppendorf). […] Ready‐made catalogue assays for a set of primers and probes (FAM labelled) (Thermofisher) specific for human genes involved in the innate immune response to SARS‐COV‐2 such as: IFNL1 (Assay ID: Hs00601677 g1, Cat. No:433118) IFNB (Assay ID:Hs01077958_s1, Cat. No. 4331182), ISG15 (Assay ID: Hs01921425 s1, catalogue no:4331182), IFIT1 (Hs03027069_s1, Cat no. 4331182), IL6 (Hs00174131_m1, Cat no. 4331182) and CXCL8/IL8 (Bt03211906_m1, Cat no. 4331182) were selected for analyses.
# (§1) When performing qPCR the Roche probe mixes for the detection of TBP (Cat. No. 05189284001) and GAPDH (Assay ID: Hs02786624_g1, Cat. No:4331182) were used as references. The LightCycler® 480 Probes Master mix was used following the manufacturer's protocol to quantify the mRNA expression levels for all genes of interest. […]
# SARS‐CoV‐2 [6] = assay: microbe, parasite or virus in culture; type: cell-based; conditions: for Improvement in potency in combination vs alone: Calu‐3, ratio of EC50 alone to EC50 in combination; for EC50: Severe acute respiratory syndrome coronavirus 2, Calu‐3, pretreated 24 h, PHE MOI = 0.1, 72 hpi, viral titres by plaque assay, read-out: EC50, drug alone
# SARS‐CoV‐2 [7] = type: cell-based; conditions: WD‐PBECs; for Reduction in viral titers compared to DMSO (significance): Remdesivir 1 µM, Azatadine‐Dimaleate 25 µM, or combination 0.4 µM + 10 µM, 48, 72, 96 hpi
# [8] = system: IFNL1, IFNB, IFIT1, ISG15, IL6, CXCL8/IL8; assay: Innate immune response gene expression by RT‐qPCR in infected WD‐PBECs; type: cell-based, human; conditions: 96 hpi, treatment from 24 hpi
# Description: Figure 5 Azatadine‐Dimaleate modulates innate immune responses in WD‐PBEC cultures. RNA samples were harvested at 96 hpi from each condition in duplicate from WD‐PBECs and a panel of selected innate immune genes (IFNL1, IFNB, IFIT1, ISG15, IL‐6, CXCL8/IL8), were quantified using RT‐qPCR assay. The relative ratios for each gene were calculated in reference to a house keeping gene GAPDH using light cycler 96 software 1.1. The data value plotted for each donor in each condition is an average of 2 biological duplicate Transwells and four technical replicates. Where possible, statistical significance was determined using unpaired Student t‐test between DMSO control and individual treatments (*p ≤ 0.05, **p ≤ 0.01).
# For RNA extraction, cultures were incubated with 400 µL of Lysis/Binding buffer (High Pure Isolation Kit; Roche) for 5 min at room temperature. […] RNA was quantified by spectrophotometry and 1 µg was transcribed into cDNA using The High‐Capacity cDNA Reverse Transcription Kit (Applied Biosystems, Thermo Fisher Scientific) in 0.2 mL PCR reaction tubes (Eppendorf). […]
# as §1
# SARS‐CoV‐2 LIV strain = type: in vivo, K18‐hACE2 mice; conditions: for Mean weight loss: Azatadine‐Dimaleate 10 mg/kg i.p. daily, remdesivir (as GS‐441524) 25 mg/kg daily, vehicle 12%; for Histopathology score: single animal shown in Fig. S5, 4 dpi, vehicle treated animal score 4
# Calu‐3 cells = assay: Cell viability / cytotoxicity in uninfected Calu‐3 cells; conditions: 72 h, Azatadine‐Dimaleate 25 µM, Remdesivir 1 µM, or combination (1 µM + 25 µM)
# SARS‐CoV‐2 [9] = system: SARS‐CoV‐2; set-up: method as in PMID 37100830; conditions: clinical trial by Klussmann and colleagues; cited from earlier work
# SARS‐CoV‐2 [10] = system: SARS‐CoV‐2; set-up: method as in PMID 32366720; conditions: Vero cells; cited from earlier work
# [11] = Vero cells, 5 µM, drug 24 h before infection, MOI = 0.1, 72 hpi
# [12] = Calu‐3 cells, 5 µM, drug 24 h before infection, MOI = 0.1, 72 hpi
# [13] = Severe acute respiratory syndrome coronavirus 2, Vero cells, 5 µM, drug 24 h before infection, MOI = 0.1, 72 hpi
# [14] = Severe acute respiratory syndrome coronavirus 2, Calu‐3 cells, 5 µM, drug 24 h before infection, MOI = 0.1, 72 hpi
# [15] = Severe acute respiratory syndrome coronavirus 2, Calu‐3 cells, PHE MOI = 0.1, 72 hpi, 7 serial 1 in 2 dilutions from 20 µM, read-out: EC50 (CPE inhibition)
structure (smiles),measurement,setting,value
CS(=O)(=O)O.CS(=O)(=O)O.Cc1cccc(/C=N/Nc2cc(N3CCOCC3)nc(OCCc3ccccn3)n2)c1 [Apilimod (mesylate)],% of CPE inhibition,SARS‐CoV‐2 [1]; [11],100%
same,% of CPE inhibition,SARS‐CoV‐2 [2]; [12],negligible antiviral activity
CN1CCC(=C2c3ccccc3CCc3cccnc32)CC1 [Azatadine‐Dimaleate],inhibition at 5 µM,SARS‐CoV‐2 [1]; [13],88.5%
same,inhibition at 5 µM,SARS‐CoV‐2 [2]; [14],97.6%
same,EC50,SARS‐CoV‐2 [3]; [15],4000 nM
same,Reduction in viral titres,SARS‐CoV‐2 [4]; 5 µM,approximately 100 fold
same,Reduction in viral titres,SARS‐CoV‐2 [4]; 25 µM,"~ 5,000 fold and > 5,000 fold"
same,Reduction of viral NSP12 RNA levels relative to untreated controls,SARS‐CoV‐2 [5]; 5 µM,approximately 50%
same,Suppression of viral NSP12 RNA levels,SARS‐CoV‐2 [5]; 25 µM,> 95%
same,Improvement in potency in combination vs alone,SARS‐CoV‐2 [6],twofold
same,EC50,SARS‐CoV‐2 [6],4000 nM
same,Lowering of peak viral titers compared to controls,SARS‐CoV‐2 [7]; 48 hpi,1.4 log10
same,Lowering of peak viral titers compared to controls,SARS‐CoV‐2 [7]; 96 hpi,2.33 log10
same,Reduction in viral titers compared to DMSO (significance),SARS‐CoV‐2 [7],significantly reduced viral titers at 72 and 96 hpi
same,"Expression of innate immune response genes (IFNL1, IFNB, IFIT1, ISG15, IL6, CXCL8/IL8)",[8],significant reductions in all except CXCL8/IL8
same,Reduction of viral antigen expression in lung (immuno‐stained area),"SARS‐CoV‐2 LIV strain; day 4 post infection, morphometric analysis of SARS‐CoV‐2 N antigen",approximately 50%
same,Mean weight loss,SARS‐CoV‐2 LIV strain; day 4 post infection,4%
same,Infectious virus in lung by plaque assay vs vehicle,"SARS‐CoV‐2 LIV strain; mouse, in vivo",statistical significance reached
same,Reduction of viral antigen expression in lung (immuno‐stained area),"SARS‐CoV‐2 LIV strain; mouse, in vivo",halved
same,Histopathology score,SARS‐CoV‐2 LIV strain,2
same,Cytotoxicity (cell viability),Calu‐3 cells,no discernible toxicity; also recorded: No cytotoxic effects
CN1CCCC(n2nc(Cc3ccc(Cl)cc3)c3ccccc3c2=O)CC1 (centres unmarked) [Azelastine],Viral load after nasal administration,SARS‐CoV‐2 [9],significant viral load reduction
CCN(CC)CCCC(C)Nc1ccnc2cc(Cl)ccc12 (centres unmarked) [Chloroquine],inhibition at 5 µM,SARS‐CoV‐2 [1]; [13],100%
same,% of CPE inhibition,SARS‐CoV‐2 [2]; [12],negligible antiviral activity
N#C[C@@]1(c2ccc3c(N)ncnn23)O[C@H](CO)[C@@H](O)[C@H]1O [GS‐441524],inhibition at 5 µM,"SARS‐CoV‐2 [1]; Severe acute respiratory syndrome coronavirus 2, Vero",80 to 90%
same,inhibition at 5 µM,"SARS‐CoV‐2 [2]; Severe acute respiratory syndrome coronavirus 2, Calu-3",80 to 90%
same,EC50,"SARS‐CoV‐2 [3]; Severe acute respiratory syndrome coronavirus 2, Calu-3, read-out: EC50 (CPE inhibition)",850 nM
CC(C)(C)[C@@H]1NC(=O)O[C@@H]2CCC[C@H]2OC/C=C/C(F)(F)c2nc3ccccc3nc2O[C@@H]2C[C@@H](C(=O)N[C@]3(C(=O)NS(=O)(=O)C4(C)CC4)C[C@H]3C(F)F)N(C2)C1=O [Glecaprevir],inhibition at 5 µM,SARS‐CoV‐2 [1]; [13],80 to 90%
same,inhibition at 5 µM,SARS‐CoV‐2 [2]; [14],80 to 90%
CCOC(=O)N1CCC(=C2c3ccc(Cl)cc3CCc3cccnc32)CC1 [Loratadine],% of CPE inhibition,SARS‐CoV‐2 [1]; [11],negligible activity
same,% of CPE inhibition,SARS‐CoV‐2 [2]; [12],negligible activity
c1ccc2c(c1)Sc1ccccc1N2CC1CN2CCC1CC2 (centres unmarked) [Mequitazine],% of CPE inhibition,SARS‐CoV‐2 [1]; [11],modest efficacy in Vero cells only
same,IC50,SARS‐CoV‐2 [10],7280 nM
CCC(CC)COC(=O)[C@H](C)N[P@](=O)(OC[C@H]1O[C@@](C#N)(c2ccc3c(N)ncnn23)[C@H](O)[C@@H]1O)Oc1ccccc1 [Remdesivir],EC50,SARS‐CoV‐2 [3]; [15],600 nM
same,Inhibitory activity on viral titres,SARS‐CoV‐2 [4]; 1 µM,comparable inhibitory activity to 25 µM Azatadine‐Dimaleate
same,Suppression of viral NSP12 RNA levels,SARS‐CoV‐2 [5]; 1 µM,> 95%
same,Improvement in potency in combination vs alone,SARS‐CoV‐2 [6],2.4 fold
same,EC50,SARS‐CoV‐2 [6],600 nM
same,Reduction in viral titers compared to DMSO (significance),SARS‐CoV‐2 [7],greatest reduction in viral titers
same,Mean weight loss,SARS‐CoV‐2 LIV strain; […],failed to prevent significant weight loss
same,Pulmonary viral RNA load (qRT‐PCR) vs vehicle,"SARS‐CoV‐2 LIV strain; mouse, in vivo",reduction achieved statistical significance
same,Histopathology score,SARS‐CoV‐2 LIV strain,3
same,Cytotoxicity (cell viability),Calu‐3 cells,No cytotoxic effects
CC(C)n1nc(-c2ccc3oc(N)nc3c2)c2c(N)ncnc21 [Sapanisertib],inhibition at 5 µM,SARS‐CoV‐2 [1]; [13],80 to 90%
same,inhibition at 5 µM,SARS‐CoV‐2 [2]; [14],80 to 90%
CCN(CCO)CCCC(C)Nc1ccnc2cc(Cl)ccc12 (centres unmarked) [hydroxychloroquine],inhibition at 5 µM,SARS‐CoV‐2 [1]; [13],100%
same,% of CPE inhibition,SARS‐CoV‐2 [2]; [12],negligible antiviral activity
